Results taken from ChEMBL document CHEMBL1133599, “Inhibitors of tripeptidyl peptidase II. 2. Generation of the first novel lead inhibitor of cholecystokinin-8-inactivating peptidase: a strategy for the design of peptidase inhibitors” (J Med Chem, 2000).
Where a SMILES comes first, the peptide text is derived from it. [ ]: non-standard residue; d: D form. The star is where a group is joined. 2Nal = N[C@@H](Cc1ccc2ccccc2c1)C(=O)O; hPhe = N[C@@H](CCc1ccccc1)C(=O)O; Cha = N[C@@H](CC1CCCCC1)C(=O)O; Phg = N[C@H](C(=O)O)c1ccccc1; Nle = CCCC[C@H](N)C(=O)O; Nva = CCC[CH](N)C(=O)O; Cbz = O=C(OCc1ccccc1)*; Bn = c1ccc(C*)cc1; NHBu = CCCCN*

Target: Tripeptidyl-peptidase 2 (Rattus norvegicus, UniProt Q64560)
Sequence (Q64560 whole entry): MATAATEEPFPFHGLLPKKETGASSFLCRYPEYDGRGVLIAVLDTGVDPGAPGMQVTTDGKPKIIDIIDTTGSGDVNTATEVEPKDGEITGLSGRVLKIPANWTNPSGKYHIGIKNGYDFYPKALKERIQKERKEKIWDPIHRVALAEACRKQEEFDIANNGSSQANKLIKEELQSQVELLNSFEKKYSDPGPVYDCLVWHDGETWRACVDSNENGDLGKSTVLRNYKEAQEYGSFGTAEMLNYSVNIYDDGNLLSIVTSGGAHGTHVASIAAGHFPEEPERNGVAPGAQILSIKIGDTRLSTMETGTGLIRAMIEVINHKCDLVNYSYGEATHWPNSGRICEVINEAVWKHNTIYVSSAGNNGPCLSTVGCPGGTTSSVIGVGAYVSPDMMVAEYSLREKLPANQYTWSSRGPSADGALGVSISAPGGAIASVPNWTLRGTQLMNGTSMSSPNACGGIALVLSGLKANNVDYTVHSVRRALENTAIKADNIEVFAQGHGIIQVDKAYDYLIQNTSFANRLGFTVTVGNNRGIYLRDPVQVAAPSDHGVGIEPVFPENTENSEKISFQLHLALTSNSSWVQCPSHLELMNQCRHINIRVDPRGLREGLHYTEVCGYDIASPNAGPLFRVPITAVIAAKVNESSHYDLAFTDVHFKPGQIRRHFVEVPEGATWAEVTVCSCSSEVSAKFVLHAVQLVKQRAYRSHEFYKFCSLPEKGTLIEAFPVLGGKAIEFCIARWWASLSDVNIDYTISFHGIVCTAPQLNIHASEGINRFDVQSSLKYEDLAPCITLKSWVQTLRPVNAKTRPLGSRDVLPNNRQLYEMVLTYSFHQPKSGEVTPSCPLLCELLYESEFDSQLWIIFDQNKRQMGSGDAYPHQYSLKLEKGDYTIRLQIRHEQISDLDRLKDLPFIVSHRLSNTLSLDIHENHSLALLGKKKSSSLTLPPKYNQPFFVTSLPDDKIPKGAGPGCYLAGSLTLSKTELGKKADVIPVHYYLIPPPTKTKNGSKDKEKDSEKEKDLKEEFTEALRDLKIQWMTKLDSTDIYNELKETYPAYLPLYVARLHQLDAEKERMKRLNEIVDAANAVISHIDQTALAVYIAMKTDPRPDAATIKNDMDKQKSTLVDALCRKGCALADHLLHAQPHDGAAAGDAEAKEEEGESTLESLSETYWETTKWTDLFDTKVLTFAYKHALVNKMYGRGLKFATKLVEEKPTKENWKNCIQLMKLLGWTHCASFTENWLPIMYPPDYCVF
Assay: Inhibition potency against Cholecystokinin-8-Inactivating Peptidase (Serine Peptidase).

| SMILES | Ki [µM] |
| --- | --- |
| CCCC[C@H](NC)C(=O)N[C@@H](CCCC)C(=O)NC | > 3000 |
| CCCC[C@H](NC(=O)[C@@H](N)CCCC)C(=O)O | 1430 |
| C[C@H](N)C(=O)N1CCC[C@H]1C(=O)O (H-Ala-Pro-OH) | 1400 |
| N[C@@H](CC(=O)O)C(=O)N[C@@H](Cc1ccc(O)cc1)C(=O)O (H-Asp-Tyr-OH) | > 5000 |
| CCCC(NC(=O)C(NC(=O)OCc1ccccc1)C(C)C)C(=O)O (stereo not drawn) (Cbz-Val-[Nva]-OH; configuration not given here) | > 5000 |
| CCC[C@H](NC(=O)[C@@H](NC(C)=O)C(C)C)C(=O)O (Ac-Val-[Nva]-OH) | > 500 |
| CCC[C@H](NC(=O)[C@@H](NCc1ccccc1)C(C)C)C(=O)O | > 5000 |
| CC(C)[C@H](N)C(=O)N[C@@H](CC1CCCCC1)C(=O)O (H-Val-[Cha]-OH) | 3000 |
| CC(C)[C@H](N)C(=O)N[C@@H](CCc1ccccc1)C(=O)O (H-Val-[hPhe]-OH) | 570 |
| CC(C)C(NC(=O)C(NC(=O)OCc1ccccc1)C(C)C)C(=O)O (stereo not drawn) (Cbz-Val-Val-OH; configuration not given here) | > 5000 |
| CCCC[C@H](NC)C(=O)N[C@@H](CCCC)C(=O)OC | > 5000 |
| CCC[C@H](NC(=O)[C@@H](N)CCC)C(=O)O (H-[Nva]-[Nva]-OH) | 1000 |
| CSCC[C@@H](NC(=O)[C@@H](N)C(C)C)C(=O)O | 2000 |
| CC(C)[C@H](N)C(=O)N[C@@H](Cc1ccc(O)cc1)C(=O)O (H-Val-Tyr-OH) | 857 |
| CC(N)C(=O)NC(C)C(=O)O (stereo not drawn) | 5000 |
| CSCC[C@@H](N)C(=O)N[C@H](CCSC)C(=O)O (H-[dM]-[dM]-OH) | > 5000 |
| CCCCOC(=O)N[C@H](C(=O)N[C@@H](CCCC)C(=O)O)C(C)C | > 5000 |
| C[C@H](N)C(=O)N[C@@H](Cc1ccccc1)C(=O)O | 1140 |
| CC(C)[C@H](N)C(=O)NC(CO)Cc1ccccc1 (stereo partly drawn) | 2100 |
| CCCC[C@H](NCc1ccccc1)C(=O)N[C@@H](CCCC)C(=O)NC | > 3000 |
| CC(C)[C@H](N)C(=O)N[C@@H](C)C(=O)O (H-Val-Ala-OH) | 9000 |
| NCC(=O)N[C@@H](Cc1ccccc1)C(=O)O (H-Gly-Phe-OH) | 470 |
| CCC[C@H](NC(=O)[C@@H](N)C(C)C)C(=O)O (H-Val-[Nva]-OH) | 433 |
| CSCC[C@@H](N)C(=O)N[C@@H](Cc1ccc(O)cc1)C(=O)O | 2000 |
| CC(C)[C@H](N)C(=O)N[C@H](C(=O)O)C(C)C [VAL-VAL] (H-Val-Val-OH) | 1670 |
| NCC(=O)N[C@@H](Cc1c[nH]c2ccccc12)C(=O)O (H-Gly-Trp-OH) | 650 |
| CCCCOC(=O)C(CCCC)NC(=O)C(NC(=O)OCc1ccccc1)C(C)C (stereo not drawn) | > 3000 |
| CCCC[C@H](NC(=O)[C@@H](N)C(C)C)C(=O)O (H-Val-[Nle]-OH) | 860 |
| CC(C)[C@H](N)C(=O)N[C@H](C(=O)O)c1ccccc1 (H-Val-[Phg]-OH) | 600 |

The next compounds have a lower Ki than those just listed; values first:

| Ki [µM] | SMILES |
| --- | --- |
| 46 | CNC(=O)[C@@H](NC(=O)[C@@H](N)C(C)C)C(C)C (H-Val-Val-NHMe) |
| 11 | CNC(=O)[C@H](Cc1ccc(O)cc1)NC(=O)[C@@H](N)C(C)C (H-Val-Tyr-NHMe) |
| 9 | CCCC[C@H](NC(=O)[C@@H](N)CCCC)C(=O)NC |
| 210 | CC(C)C(N)C(=O)NC(Cc1ccc(OCc2ccccc2)cc1)C(=O)O (stereo not drawn) (H-Val-Tyr(Bn)-OH; configuration not given here) |
| 20 | CSCC[C@H](NC(=O)[C@H](Cc1c[nH]c2ccccc12)NC(=O)CN)C(=O)O (H-Gly-Trp-Met-OH) |
| 22 | CNC(=O)[C@H](Cc1ccccc1)NC(=O)[C@@H](N)C(C)C (H-Val-Phe-NHMe) |
| 33 | CC(C)[C@H](N)C(=O)NCCCCc1ccccc1 |
| 1 | CC[C@H](C)[C@H](N)C(=O)N1CCC[C@H]1C(=O)N[C@H](C(=O)O)[C@@H](C)CC [DIPROTIN A] |
| 114 | C[C@H](N)C(=O)N[C@@H](C)C(=O)N1CCC[C@H]1C(=O)N[C@@H](C)C(=O)O (H-AAPA-OH) |
| 50 | CSCC[C@H](NC(=O)[C@H](Cc1ccc(O)cc1)NC(=O)[C@@H](N)CC(=O)O)C(=O)O (H-Asp-Tyr-Met-OH) |
| 57 | CCCCNC(=O)[C@H](CC1CCCCC1)NC(=O)[C@@H](N)C(C)C (H-Val-[Cha]-NHBu) |
| 29 | CNC(=O)[C@@H](NC(=O)[C@@H](N)C(C)C)c1ccccc1 (H-Val-[Phg]-NHMe) |
| 114 | CC(C)[C@H](N)C(=O)NCCc1ccccc1 |
| 28 | CCC[C@H](NC(=O)[C@@H](N)C(C)C)C(=O)NC (H-Val-[Nva]-NHMe) |
| 29 | CCCC[C@H](NC(=O)[C@@H](N)C(C)C)C(=O)NCCCc1ccccc1 |
| 290 | CCCCOC(=O)[C@H](CCCC)NC(=O)[C@@H](N)C(C)C |
| 86 | CC(C)[C@H](N)C(=O)NCCCc1ccccc1 |
| 66 | CCCC[C@H](NC(=O)[C@@H](N)C(C)C)C(=O)NC (H-Val-[Nle]-NHMe) |
| 3 | C[C@H](N)C(=O)N1CCC[C@H]1C(=O)N[C@@H](C)C(=O)O (H-Ala-Pro-Ala-OH) |
| 260 | COC(=O)[C@H](Cc1ccccc1)NC(=O)[C@@H](N)C(C)C (H-Val-Phe-OMe) |
| 3 | CCCCNC(=O)[C@H](CCC)NC(=O)[C@@H](N)C(C)C (H-Val-[Nva]-NHBu) |
| 60 | CC(C)[C@H](N)C(=O)N[C@@H](Cc1ccc2ccccc2c1)C(=O)O (H-Val-[2Nal]-OH) |
| 230 | CCCCOC(=O)[C@H](Cc1ccccc1)NC(=O)[C@@H](N)C(C)C |
| 14 | CCCCNC(=O)[C@H](CCCC)NC(=O)[C@@H](N)C(C)C (H-Val-[Nle]-NHBu) |
| 20 | CCCCNC(=O)[C@H](Cc1ccccc1)NC(=O)[C@@H](N)C(C)C (H-Val-Phe-NHBu) |
| 29 | CC(C)[C@H](NC(=O)CN)C(=O)N[C@@H](Cc1ccccc1)C(=O)O (H-Gly-Val-Phe-OH) |
| 110 | NCC(=O)NCC(=O)N[C@@H](Cc1ccccc1)C(=O)O (H-Gly-Gly-Phe-OH) |
| 80 | CC(C)[C@H](N)C(=O)NCc1ccccc1 |
| 14 | C[C@H](N)C(=O)N[C@@H](C)C(=O)N[C@@H](C)C(=O)O |
